The values below come from patent US20050038113A1, “Valproic acid and derivatives for the combinatorial therapeutic treatment of human cancers and for the treatment of tumor metastasis and minimal residual disease” (G2M Cancer Drugs AG, priority 2001, published 2005).

In experiment [1] the test system is DU-145 prostate cancer cells. The experiment in a line: SRB-assay, reduction in total cellular biomass. The experiment is classed as cell-based, human. The note with it: 48 hours. The method, then: (§1) The reduction in cellular biomass was measured by SRB-assay. For this assay cells were seeded in 96 well culture dishes at densities between 3000 and 8000 cells per well. […] Cultures were fixed with cold TCA producing a final TCA concentration of 10%. After 1 hour of incubation at 4° C. the cells were washed five times with water and air dried. Fixed cells were stained for 30 minutes with 0,4% (wt/vol) Sulforhodamine B (SRB) dissolved in 1% acetic acid and washed four times with 1% acetic acid to remove unbound dye. After air drying bound dye was solubilized with 10 mM unbuffered Tris base (pH 10,5) for 5 minutes. Optical densities were read on a Titertek Multiskan Plus spectrophotometric plate reader at 550 nm. Six test wells for each dose-response were set in parallel with 12 growth control wells per cell line. A measure of the cell population density at time 0 (To; the time at which the drug was added) was also made from 12 extra reference wells of cells fixed with TCA just prior to drug addition to the test plates. Background OD of complete medium with 5% FBS fixed and stained as described above was also determined in 12 separate wells. From the unprocessed OD data from each microtiter plate the background OD measurements (i.e. OD of complete medium plus stain and OD of cells at T0) were subtracted thus giving the reduction of cellular biomass of the cells.
(§2) The effect on the reduction in total cellular biomass was measured by SRB-assay (see example 1 for assay and read-out procedure details).
Results using MCF-7 estrogen-dependent breast cancer cells are presented in FIG. 18 and using DU-145 prostate cancer cells in FIG. 19. […] The effect on cell growth was measured by SRB-assay as described in example 1.
In general terms: The SRB assay estimates cell density from bound dye.

Experiment [2] relates to PC-3 prostate cancer cells. The experiment in a line: SRB-assay, reduction in total cellular biomass. The note with it: 0.75 mM racemic 4-yn VPA in combination with Camptothecin, 48 hours. The experiment is classed as cell-based, human. The method, then: as §1, with “From the unprocessed OD data from each microtiter plate the background OD measurements (i.e. OD of complete medium plus stain and OD of cells at T0) were subtracted thus giving the reduction of cellular biomass of the cells.” left out
as §2

The test system of experiment [3] is HCT-15 colon cancer cells. The experiment in a line: SRB-assay, reduction in total cellular biomass. The class given is cell-based, human. The note with it: 5-FU alone at doses lower than 0.5 μM, 48 hours. The method, then:
as §1
This was in particular obvious when lower concentrations of 5-FU were used. E.g. […] Thus, this combinatorial activity of these two drugs must be explained via a synergistic activity of this treatment.

Experiment [4] concerns HCT-116 colon cancer cells. The experiment in a line: cell counts and propidium iodide cell cycle/apoptosis analysis. The experiment is classed as cell-based, human. The method, then: For FIG. 14 cells were seeded in 6 well culture dishes at 100000 cells/well. The day after, they were treated with the indicated drugs (5-FU: 2 μM 5-Fluoruracile; AD: 20 ng/ml adriamycin; IT: 3 μM irinothecan), and then cultured for further 48 hours. Cells were counted at 24 h and 48 h after treatment. All of the assays have been performed in triplicate.
For FIG. 15 cells were seeded in 6 well culture dishes at 100000 cells/well. […] (A), results of triplicate counts of viable cells. (B), cells were stained with propidium iodide after permeabilization and fixation. Results of a cell cycle analysis are presented as percentage (%) of cells in G1, S, G2+M, and sub-G1 (apoptotic cells): all of the assays have been performed in triplicate.
(A), results of triplicate counts of viable cells. (B), cells were stained with propidium iodide after permeabilization and fixation. Results of a cell cycle analysis are presented as percentage (%) of apoptotic cells: all of the assays have been performed in triplicate.
For FIG. 17 cells were seeded in 10 cm culture dishes (1 million cells/dish). […] The day after, they were treated with the following drugs: 5-FU (panel A), AD (B), or IT (C), at the concentrations as indicated for FIG. 14. Cells were analyzed at the day of treatment, 24 h, and 48 h following treatment. Upper panels, results of triplicate counts of viable cells. Lower panels, cells were stained with propidium iodide after permeabilization and fixation. Results of a cell cycle analysis are presented as percentage (%) of apoptotic cells: all of the assays have been performed in triplicate.

For experiment [5], the system named is primary AML blasts from AML patients. As to the kind of experiment: ex vivo differentiation, viability and apoptosis of leukemic blasts. The experiment is classed as cell-based, human. The method, then: Each point represents the mean of a set of data determined in triplicate (Example 15). VPA may cause synergistic therapeutic responses.
Cases were classified according to the French-American-British (FAB) classification (Bennett et al., Ann Intern Med 103, 1985). Cytogenetic analysis and RT-PCR tests were performed to rule out the presence of the APL associated fusion genes according to standard methods as described (Mandelli et al., Blood 90, 1997; Mancini et al., Br J Haematol. 91, 1995; Grimwade et al., Blood 90, 1999).

In experiment [6] the test system is PPARδ. The note with it: cited from earlier work.
Experiment [7] deals with F9 cells. The note with it: cited from earlier work.
Experiment [8] concerns PML-RAR leukemia. The note with it: PML-RAR patient with multiple relapses after retinoic acid and chemotherapy; cited from earlier work.
Setting [9] is: drug alone at the concentrations used (5-FU 2 μM; AD 20 ng/ml; IT 3 μM).

For the molecule `C#CCC(CCC)C(=O)O` (racemic) [4-yn VPA, 2-n-Propyl-4-pentynoic acid], the “reduction of cellular biomass” value in experiment [1] (0.75 mM racemic 4-yn VPA in combination with cis Platinum lower than 10 μM) is listed as “synergistic reduction of cellular biomass”. Besides, in experiment [2], the “reduction in cellular biomass” value is listed as “at least additive therapeutic effect”.

For the molecule `O=c1[nH]cc(F)c(=O)[nH]1` [5-FU, 5-Fluorouracil], in experiment [3], the cellular biomass entry is “increase of the cellular biomass”. Further, the results for the apoptosis result in experiment [4] (setting [9]), in experiment [4] (high concentrations of 5-FU alone (not shown)) and in experiment [4] (lower doses of 5-FU alone) were “did not induce apoptosis significantly”, “efficiently induce apoptosis” and “only a modest effect”, respectively. In experiment [4] (setting [9]), the growth rate result is “only moderately affected the growth rate”. In addition, in experiment [4] (lower doses of 5-FU alone, due to reduction in cycling cells), the cell number result is on record as “reduction in cell number”.

Consider `CC(/C=C/C(=O)NO)=C\[C@@H](C)C(=O)c1ccc(N(C)C)cc1` [TSA], for which, in experiment [5] (TSA +/- RA, compared to the extent VPA does), the “synergistic activities in combination (FIGS. 21 and 25)” value was “does not display this synergistic activities”. Further, the “apoptosis of AML blasts (FACS, propidium-iodide)” value in experiment [5] (single agent, 4 cases tested) is reported as “not TSA, was found effective in inducing apoptosis”. Besides, the PPARδ activation result in experiment [6] is “activates PPARδ”. Moreover, the F9 cell differentiation result in experiment [7] was “induces the same type of F9 cell differentiation as VPA”.

For the molecule `COc1cccc2c1C(=O)c1c(O)c3c(c(O)c1C2=O)C[C@@](O)(C(=O)CO)C[C@@H]3O[C@H]1C[C@H](N)[C@H](O)[C@H](C)O1` [adriamicine], in experiment [4] (setting [9]), the apoptosis entry is “did not induce apoptosis significantly” and the growth rate result was “only moderately affected the growth rate”.

For the molecule `N.N.[Cl][Pt][Cl]` [cisPlatinum], the cellular biomass result in experiment [1] (cisPlatinum alone at concentrations lower than 10 μM) and in experiment [1] (cisPlatinum alone at doses lower than 1 μM) was “no decrease of the cellular biomass” in each case.

For the molecule `CCc1c2c(nc3ccc(OC(=O)N4CCC(N5CCCCC5)CC4)cc13)-c1cc3c(c(=O)n1C2)COC(=O)[C@]3(O)CC` [irinothecan], in experiment [4] (setting [9]), the apoptosis entry was “did not induce apoptosis significantly” and the growth rate result is “only moderately affected the growth rate”.

Regarding phenylbutyrate, the clinical response result in experiment [8] is on record as “complete remission of the leukemia”.
